One data set relates to Cavia porcellus. Description: Amount of ouabain needed for production of ventricular arrhythmias that causes death in guinea pig by cardiac arrest at a dose of 2 mg/kg iv given 5 min prior. The class given is functional, Cardiac ventricle.
Conditions: not given
In the case of `C=C[C@H]1CN2CC[C@H]1C[C@@H]2[C@@H](O)c1ccnc2ccc(OC)cc12` [QUINIDINE], the Average dose was determined as 0.3139 mg/kg.

The species entered for another data set is Rattus norvegicus. Description: Relative potency with reference to quinidine. The data set is classed as functional.
Conditions: not given
The compound `CC1(C)CC(C(=O)NCCCNCc2ccccc2Cl)C(C)(C)N1` (stereo not drawn) displayed a Relative potency of 4.9.
In turn, `C=CCOc1c(CNCCCNC(=O)C2=CC(C)(C)NC2(C)C)cccc1OC` returned a Relative potency of 7.
`C=CCOc1ccc(CNCCCNC(=O)C2=CC(C)(C)NC2(C)C)cc1OC` displayed a Relative potency of 5.4.
The compound `COc1ccc(CNCCCNC(=O)C2=CC(C)(C)NC2(C)C)c(OC)c1` showed a Relative potency of 7.
In turn, `COc1cc(CNCCCNC(=O)C2=CC(C)(C)NC2(C)C)cc(OC)c1OC` displayed a Relative potency of 3.1.
As for `Cc1cccc(C)c1NC(=O)C(C)NCCCNC(=O)C1CC(C)(C)NC1(C)C` (stereo not drawn), the Relative potency turned out to be 5.1.
The same measure, in the same setting: as for `Cc1cccc(C)c1NC(=O)C(NC(=O)C1=CC(C)(C)NC1(C)C)c1ccccc1` (stereo not drawn), the figure is 15.3.
Compound `CC1(C)C=C(C(=O)NCCCNCc2cccc(Oc3ccccc3)c2)C(C)(C)N1` came in with a Relative potency of 12.4.
The same measure, in the same setting: as for `CC1(C)C=C(C(=O)NCCCNC(=O)CSc2ccccc2)C(C)(C)N1`, the figure is 1.7; as for `CC1(C)C=C(C(=O)NCCCNCc2ccccc2O)C(C)(C)N1`, 2.5.
In turn, `C=CCOc1cccc(CNCCCNC(=O)C2=CC(C)(C)NC2(C)C)c1` gave a Relative potency of 4.4.
Still for that read-out and setting: as for `COc1cc(OCc2ccccc2)ccc1CNCCCNC(=O)C1=CC(C)(C)NC1(C)C`, the figure is 17.2.
Same read-out and setting: as for `CC1(C)C=C(C(=O)NCCCNCc2ccc(OCc3ccccc3)cc2)C(C)(C)N1`, the figure is 9.2; as for `CC1(C)C=C(C(=O)NCCCNCc2cccs2)C(C)(C)N1`, 2.2.
The compound `CC1(C)C=C(C(=O)NCCCNCc2ccccc2OCc2ccccc2)C(C)(C)N1` showed a Relative potency of 19.8.
`CC1(C)C=C(C(=O)NCCNCc2ccc(Cl)cc2)C(C)(C)N1`: the Relative potency came out at 2.2.
On to `CC1(C)C=C(C(=O)NCCCNCc2cccc(O)c2)C(C)(C)N1.Cl`, for which the Relative potency worked out at 1.4.
Take `CC1(C)C=C(C(=O)NCC(O)CNCc2cccs2)C(C)(C)N1` (stereo not drawn): the Relative potency worked out at 1.6.
Compound `CC1(C)C=C(C(=O)NCCNCc2ccccc2O)C(C)(C)N1` yielded a Relative potency of 11.9.

System in a further data set: not listed separately
Description: Acute toxicity determined after intravenal administration in mice. The class given is organism-based. The note with it: mouse, in vivo, iv.
As to `CC1(C)CC(C(=O)NCCCNCc2ccccc2Cl)C(C)(C)N1` (stereo not drawn), the LD50 (in general, the dose at which mortality reaches 50%) was determined as 31 mg/kg.
On to `C=CCOc1c(CNCCCNC(=O)C2=CC(C)(C)NC2(C)C)cccc1OC`, for which the LD50 was determined as 15 mg/kg.
In turn, `C=CCOc1ccc(CNCCCNC(=O)C2=CC(C)(C)NC2(C)C)cc1OC` yielded a 50% lethal dose (LD50) of 21 mg/kg.
With `COc1ccc(CNCCCNC(=O)C2=CC(C)(C)NC2(C)C)c(OC)c1`, the LD50 is 16 mg/kg.
`COc1cc(CNCCCNC(=O)C2=CC(C)(C)NC2(C)C)cc(OC)c1OC` returned an LD50 of 22 mg/kg.
Take `Cc1cccc(C)c1NC(=O)C(C)NCCCNC(=O)C1CC(C)(C)NC1(C)C` (stereo not drawn): the LD50 stood at 39 mg/kg.
Consider `Cc1cccc(C)c1NC(=O)C(NC(=O)C1=CC(C)(C)NC1(C)C)c1ccccc1` (stereo not drawn), for which the LD50 was 7.6 mg/kg.
In turn, `CC1(C)C=C(C(=O)NCCCNCc2cccc(Oc3ccccc3)c2)C(C)(C)N1` registered an LD50 of 11 mg/kg.
As to `CC1(C)C=C(C(=O)NCCCNCc2ccccc2O)C(C)(C)N1`, the LD50 is 28 mg/kg.
`C=CCOc1cccc(CNCCCNC(=O)C2=CC(C)(C)NC2(C)C)c1` showed an LD50 of 34 mg/kg.
Compound `COc1cc(OCc2ccccc2)ccc1CNCCCNC(=O)C1=CC(C)(C)NC1(C)C` had an LD50 of 13 mg/kg.
Compound `CC1(C)C=C(C(=O)NCCCNCc2ccc(OCc3ccccc3)cc2)C(C)(C)N1` returned a 50% lethal dose (LD50) of 20 mg/kg.
On the same count and under the same terms, as for `CC1(C)C=C(C(=O)NCCCNCc2cccs2)C(C)(C)N1`, the figure is 65 mg/kg; as for `CC1(C)C=C(C(=O)NCCCNCc2ccccc2OCc2ccccc2)C(C)(C)N1`, 9 mg/kg.
Compound `CC1(C)C=C(C(=O)NCCNCc2ccc(Cl)cc2)C(C)(C)N1` yielded an LD50 of 82 mg/kg.
For the compound `CC1(C)C=C(C(=O)NCCCNCc2cccc(O)c2)C(C)(C)N1.Cl`, the LD50 worked out at 13 mg/kg.
The compound `CC1(C)C=C(C(=O)NCC(O)CNCc2cccs2)C(C)(C)N1` (stereo not drawn) returned a 50% lethal dose (LD50) of 49 mg/kg.
As for `CC1(C)C=C(C(=O)NCCNCc2ccccc2O)C(C)(C)N1`, the LD50 was determined as 30 mg/kg.

The subject of the next data set is Rattus norvegicus. Description: Incidence of arrhythmias in rats after a intravenal administration at 4 mg/kg, expressed as no. of positive cases out of no. of tested cases (10).
Conditions: not given
The class given is functional.
Turning to `CC1(C)CC(C(=O)NCCCNCc2ccccc2Cl)C(C)(C)N1` (stereo not drawn), the “No. of positive cases” value came to 7.
Turning to `C=CCOc1c(CNCCCNC(=O)C2=CC(C)(C)NC2(C)C)cccc1OC`, the “No. of positive cases” value is recorded as 10.
In the case of `C=CCOc1ccc(CNCCCNC(=O)C2=CC(C)(C)NC2(C)C)cc1OC`, the “No. of positive cases” value is on record as 10.
For the compound `COc1ccc(CNCCCNC(=O)C2=CC(C)(C)NC2(C)C)c(OC)c1`, the “No. of positive cases” value stood at 9.
`COc1cc(CNCCCNC(=O)C2=CC(C)(C)NC2(C)C)cc(OC)c1OC`: the “No. of positive cases” value stood at 9.
With `Cc1cccc(C)c1NC(=O)C(C)NCCCNC(=O)C1CC(C)(C)NC1(C)C` (stereo not drawn), the “No. of positive cases” value stood at 10.
Turning to `CC1(C)C=C(C(=O)NCCCNC(=O)CSc2ccccc2)C(C)(C)N1`, the “No. of positive cases” value was 7.
On to `CC1(C)C=C(C(=O)NCCCNCc2ccccc2O)C(C)(C)N1`, for which the “No. of positive cases” value was 7.
Take `COc1cc(OCc2ccccc2)ccc1CNCCCNC(=O)C1=CC(C)(C)NC1(C)C`: the “No. of positive cases” value is on record as 10.
On to `CC1(C)C=C(C(=O)NCCCNCc2cccs2)C(C)(C)N1`, for which the “No. of positive cases” value is recorded as 7.
Take `CC1(C)C=C(C(=O)NCCNCc2ccc(Cl)cc2)C(C)(C)N1`: the “No. of positive cases” value was 5.
With `CC1(C)C=C(C(=O)NCCCNCc2cccc(O)c2)C(C)(C)N1.Cl`, the “No. of positive cases” value turned out to be 4.
Same read-out and setting: as for `CC1(C)C=C(C(=O)NCC(O)CNCc2cccs2)C(C)(C)N1` (stereo not drawn), the figure is 8.
For the compound `CC1(C)C=C(C(=O)NCCNCc2ccccc2O)C(C)(C)N1`, the “No. of positive cases” value is recorded as 10.

The next data set deals with Cavia porcellus. Description: Amount of ouabain needed for production of ventricular extra-systoles at a dose of 2 mg/kg (iv given 5 min prior) in guinea pig. The data set is classed as functional, Cardiac ventricle.
Conditions: not given
As to `C=C[C@H]1CN2CC[C@H]1C[C@@H]2[C@@H](O)c1ccnc2ccc(OC)cc12` [QUINIDINE], the Average dose stood at 0.1954 mg/kg.

The next data set relates to Rattus norvegicus. Description: Effective dose against aconitine-induced arrhythmia after intravenal administration in anesthetized rats. The data set is classed as functional.
Conditions: not given
For `CC1(C)CC(C(=O)NCCCNCc2ccccc2Cl)C(C)(C)N1` (stereo not drawn), the ED150 turned out to be 2.4 mg/kg.
`C=CCOc1c(CNCCCNC(=O)C2=CC(C)(C)NC2(C)C)cccc1OC` returned an ED150 of 1.7 mg/kg.
On the same count and under the same terms, as for `C=CCOc1ccc(CNCCCNC(=O)C2=CC(C)(C)NC2(C)C)cc1OC`, the figure is 2.2 mg/kg; as for `COc1ccc(CNCCCNC(=O)C2=CC(C)(C)NC2(C)C)c(OC)c1`, 1.7 mg/kg; as for `COc1cc(CNCCCNC(=O)C2=CC(C)(C)NC2(C)C)cc(OC)c1OC`, 3.8 mg/kg.
`Cc1cccc(C)c1NC(=O)C(C)NCCCNC(=O)C1CC(C)(C)NC1(C)C` (stereo not drawn) returned an ED150 of 2.3 mg/kg.
On to `Cc1cccc(C)c1NC(=O)C(NC(=O)C1=CC(C)(C)NC1(C)C)c1ccccc1` (stereo not drawn), for which the ED150 was found to be 0.78 mg/kg.
Same read-out and setting: as for `CC1(C)C=C(C(=O)NCCCNCc2cccc(Oc3ccccc3)c2)C(C)(C)N1`, the figure is 0.96 mg/kg; as for `CC1(C)C=C(C(=O)NCCCNC(=O)CSc2ccccc2)C(C)(C)N1`, 6.9 mg/kg; as for `CC1(C)C=C(C(=O)NCCCNCc2ccccc2O)C(C)(C)N1`, 4.7 mg/kg.
On the same count and under the same terms, as for `C=CCOc1cccc(CNCCCNC(=O)C2=CC(C)(C)NC2(C)C)c1`, the figure is 2.7 mg/kg; as for `COc1cc(OCc2ccccc2)ccc1CNCCCNC(=O)C1=CC(C)(C)NC1(C)C`, 0.69 mg/kg.
Same read-out and setting: then `CC1(C)C=C(C(=O)NCCCNCc2ccc(OCc3ccccc3)cc2)C(C)(C)N1`, with 1.3 mg/kg; and `CC1(C)C=C(C(=O)NCCCNCc2cccs2)C(C)(C)N1`, with 5.3 mg/kg; and `CC1(C)C=C(C(=O)NCCCNCc2ccccc2OCc2ccccc2)C(C)(C)N1`, with 0.6 mg/kg.
Consider `CC1(C)C=C(C(=O)NCCNCc2ccc(Cl)cc2)C(C)(C)N1`, for which the ED150 amounted to 5.4 mg/kg.
`CC1(C)C=C(C(=O)NCCCNCc2cccc(O)c2)C(C)(C)N1.Cl` gave an ED150 of 8.5 mg/kg.
As to `CC1(C)C=C(C(=O)NCC(O)CNCc2cccs2)C(C)(C)N1` (stereo not drawn), the ED150 is 7.6 mg/kg.
`CC1(C)C=C(C(=O)NCCNCc2ccccc2O)C(C)(C)N1` returned an ED150 of 1 mg/kg.

A further data set has as its system Rattus norvegicus. Nature of the data set: Tested for incidence of arrhythmias in rats after a intravenal administration of 2 mg/kg expressed as no. of positive cases out of no. of tested cases (10). The class given is functional.
Conditions: not given
Regarding `Cc1cccc(C)c1NC(=O)C(NC(=O)C1=CC(C)(C)NC1(C)C)c1ccccc1` (stereo not drawn), the “No. of positive cases” value is recorded as 10.
With `CC1(C)C=C(C(=O)NCCCNCc2cccc(Oc3ccccc3)c2)C(C)(C)N1`, the “No. of positive cases” value worked out at 10.
`C=CCOc1cccc(CNCCCNC(=O)C2=CC(C)(C)NC2(C)C)c1`: the “No. of positive cases” value was found to be 7.
As for `CC1(C)C=C(C(=O)NCCCNCc2ccc(OCc3ccccc3)cc2)C(C)(C)N1`, the “No. of positive cases” value is on record as 8.
Regarding `CC1(C)C=C(C(=O)NCCCNCc2ccccc2OCc2ccccc2)C(C)(C)N1`, the “No. of positive cases” value was found to be 10.

Another data set relates to Cavia porcellus. Nature of the data set: Amount of ouabain needed for production of ventricular fibrillation at a dose of 2 mg/kg (iv given 5 min prior) in guinea pig. The data set is classed as functional, Cardiac ventricle.
Conditions: not given
In turn, `C=C[C@H]1CN2CC[C@H]1C[C@@H]2[C@@H](O)c1ccnc2ccc(OC)cc12` [QUINIDINE] registered an Average dose of 0.2911 mg/kg.
